Assay results reported in patent publication US12173089B2, “Inhibition of pulmonary fibrosis with nutlin-3A and peptides” (BOARD OF REGENTS, THE UNIVERSITY OF TEXAS SYSTEM, priority 2013, dated 2024).

Key:
BLM-treated mice [1] = test: Established lung fibrosis in BLM-treated mice (CT scanning, lung function, trichrome staining, hydroxyproline, desmosine); format: in vivo; conditions: for established lung fibrosis: WT mice, results reported herein and elsewhere
Protocol: FIGS. 10A-10D. Nutlin-3a (NTL) inhibits lung fibrosis in BLM-treated mice. Mice were exposed to BLM for 14 d to induce lung fibrosis. Saline treated mice were used as fibrosis controls. After 14 d, mice exposed to BLM were injected IV with either vehicle or nutlin-3 a (10 mg/kg body weight) (Zhang F et al. Drug Metab Dispos 39: 15-21, 2011) to determine whether nutlin-3 a inhibited established lung fibrosis. On day 21 after BLM injury, mice underwent CT scanning to assess the extent of fibrosis (FIG. 10A). One representative example is shown (n=9). (FIG. 10B) Lung compliance and resistance were measured in the same mice using the Flexivent system to assess improvement in lung function after nutlin-3 a treatment (n=9). (FIG. 10C) Lung sections were subjected to trichrome staining to assess lung architecture and collagen deposition as an indication of lung fibrosis. (FIG. 10D) Whole lung homogenates were analyzed for total collagen (hydroxyproline) and desmosine content as an independent assessment of changes in ECM.
FIGS. 11A-11D. CSP-4 inhibits established lung fibrosis and improves lung function. Mice were exposed to BLM to induce pulmonary fibrosis. After 14 d, the mice were injected IV with either vehicle or 1.5 mg/kg body weight of CSP-4 or control peptide (“CP”) of scrambled sequence. On d 21 after BLM injury, mice underwent CT scanning examine CSP-4 inhibition of established lung fibrosis (FIG. 11A). One representative example is shown (n=9). (FIG. 11B): Lung volumes were measured in the same mice (n=9) using quantitative CT renditions. (FIG. 11C): Lung sections were subjected to trichrome and H&E staining (not shown) to assess collagen deposition as an indicator of lung fibrosis. (FIG. 11D) Analysis of whole lung homogenates for total hydroxyproline content.
Mice exposed to BLM (or saline in controls) for 14 d to induce lung fibrosis were injected IV with nutlin-3a (10 mg/kg body weight) (Zhang et al, supra) or a vehicle control to determine and the effect on established lung fibrosis was examined. Fibrosis was evaluated by CT scanning and lung function (compliance and resistance) were measured using the Flexivent system. Lung sections were subjected to trichrome staining and H & E staining (the latter not shown) to assess lung architecture and collagen deposition as an indication of fibrosis. Finally, whole lung homogenates were analyzed for total collagen (hydroxyproline) and desmosine content (Bhandary Y P et al, Am J Physiol: Lung Cell Mol Physiol 302:L463-73, 2012; Bhandary Y P et al, Am J Pathol, 183: 131-43 2013) as an independent assessment of the ECM. […] Oral administration of Nutlin-3a 14 days after BLM injury likewise inhibited pulmonary fibrosis in mice.
Mice were exposed to BLM to induce pulmonary fibrosis. After 14 d, the mice were injected IV with either vehicle or 1.5 mg/kg body weight of CSP-4 (SEQ ID NO: 1) or control peptide (scrambled sequence of same amino acids; CP, SEQ ID NO:5) at 1.5 mg/kg body weight or vehicle was injected IV into mice exposed to BLM 14 days earlier. One week later, mice were tested by CT scanning to evaluate lung fibrosis. Lung volume was measured in the same mice using quantitative CT renditions.

BLM-treated mice [2] = test: Ki-67 immunohistochemistry of lung sections of BLM-treated mice; format: in vivo; conditions: IV treatment 14 d after BLM, sections seven days later
Protocol: (§1) FIGS. 12A-12C. CSP-4 or nutlin-3a (NTL) inhibits proliferation of FL-fibroblasts. Mice were exposed to BLM for 14 d to induce significant lung fibrosis or to saline (fibrosis controls). 14 d later, mice exposed to BLM were treated with CSP-4 or CP, or nutlin-3a (see FIGS. 10A-10D/11A-11D). (FIG. 12A): Lung sections (d 21 after BLM injury) were subjected to immunohistochemistry (IHC) for Ki-67 to assess proliferation. One representative example is shown (n=9). Fibroblasts were isolated from the lungs of mice exposed to saline, BLM or BLM+nutlin-3a (as described in FIG. 11A) were tested for the changes in expression of col-I, p53 and downstream uPA and PAI-1 proteins by Western blotting (FIG. 12B):, and mRNA by quantitative RT-PCR (FIG. 12C).
(§2) Mice exposed to BLM 14 days earlier were treated with CSP-4 or its control (CP) or Nutlin-3a IV (as in Examples IX and X). Seven days later lung sections were obtained and subjected to IHC for Ki-67 to assess cell proliferation (see FIG. 12A). […] Fibroblasts isolated from the lungs of these animals (as described in Example X) were tested for the changes in expression of col-I, p53 and downstream uPA and PAI-1 proteins by Western blotting, and mRNA by quantitative RT-PCR (see FIGS. 12B-12C).

[3] = test system: fibroblasts isolated from the lungs of mice; test: Western blotting and quantitative RT-PCR of fibroblasts isolated from lungs of treated BLM mice; format: in vivo; conditions: fibroblasts from BLM mice treated with nutlin-3a
Protocol: as §1, §2

LPS-induced ALI = conditions: mice; cited from earlier work
FL-fibroblasts = test: Deletional analysis of CSP: peptide fragments tested on FL-fibroblasts for changes in p53, uPA, PAI-1 and col-I; format: cell-based, human
Protocol: FIGS. 6A-6D. CSP (CSP4) augments p53 expression via induction of miR-34a in FL(IPF)-fibroblasts. (FIG. 6A) NL- and FL-fibroblasts (n=3) were treated with PBS, CSP-4 (CSP) or control peptide (CP). RNA was analyzed for miR-34a by real-time PCR. (FIG. 6B) FL-fibroblasts were treated with PBS or CSP or CP with or without miR-34a antisense (miR-34a-AS) or pre-miR-34a or control miRNA (Ctr-miR). Conditioned media (CM) were immunoblotted for PAI-1 and lysates (CL) for p53 and β-actin. (FIG. 6C) FL-fibroblasts were treated with PBS or CSP or CP in the presence or absence of miR-34a-AS, pre-miR-34a or Ctr-miR. RNA was analyzed for changes in miR-34a by real-time PCR. (FIG. 6D) A series of overlapping deletions were made in CSP and these peptides were used to treat FL-fibroblasts with. The peptide sequences were CSP (SEQ ID NO:2), CSP-2: DGIWKAS (SEQ ID NO:12), CSP-3: KYWFYR (SEQ ID NO:13), CSP-4 (SEQ ID NO:1), and CP (SEQ ID NO:5). Changes in p53, uPA, PAI-1 and col-I were later assessed to identify the minimum amino acids required for the CSP effects.
A series of overlapping deletions were made in CSP and these peptide fragments were tested on FL-fibroblasts for changes in p53, uPA, PAI-1 and col-I (FIG. 6D).

ATII cell = conditions: BLM- or cigarette smoke-induced; cited from earlier work

COc1ccc(C2=NC(c3ccc(Cl)cc3)C(c3ccc(Cl)cc3)N2C(=O)N2CCNC(=O)C2)c(OC(C)C)c1 (stereo not drawn) [nutlin-3a, 4-2-4,5-dihydro-1H-imidazole-1-piperazin-2-one]
effect on established lung fibrosis (CT, compliance and resistance, trichrome, hydroxyproline, desmosine) (BLM-treated mice [1]; IV 10 mg/kg body weight 14 d after BLM, read on day 21): beneficial effect | established lung fibrosis (BLM-treated mice [1]; IV or oral administration beginning 14 d after BLM): mitigates | pulmonary fibrosis (BLM-treated mice [1]; oral administration 14 days after BLM injury): inhibited | staining for ki-67 antigens in lung sections (BLM-treated mice [2]): significantly reduced | PAI-1 protein and mRNA expression [3]: marked induction | col-I protein and mRNA expression [3]: significant suppressed | p53 protein [3]: marked induction | uPA protein and mRNA expression [3]: significant suppressed | severity of LPS-induced ALI (LPS-induced ALI): reduced

FTTFTVT [CSP-4]
activity in deletional analysis of the CSP 20mer (changes in p53, uPA, PAI-1 and col-I) (FL-fibroblasts): had the activity of the full length peptide | established lung fibrosis (BLM-treated mice [1]; IP or IV administration beginning 14 d after BLM): mitigates | BLM-induced lung fibrosis (CT, lung volume, trichrome and H&E, hydroxyproline) (BLM-treated mice [1]; IV 1.5 mg/kg body weight 14 d after BLM, read one week later): inhibited | staining for ki-67 antigens in lung sections (BLM-treated mice [2]): significantly reduced | ATII cell apoptosis (ATII cell): inhibited | ATII cell p53 expression (ATII cell): inhibited
